Laboratory results from patent US11865108B2, “Nitrogen containing bicyclic compounds” (Wockhardt Limited, priority 2019, dated 2024).
In brackets after ≈: the same amount, converted by molar mass.

Tests used:
K. pneumoniae H 523 = test: Agar dilution MIC, K. pneumoniae H 523; type: cell-based; settings: Klebsiella pneumoniae, H523
Protocol: (§1) The biological activity of representative compounds according to the invention against various bacterial strains was investigated. In a typical study, overnight grown bacterial cultures were diluted appropriately and inoculated on the agar media containing doubling dilutions of the test compounds. Observations for growth or no growth was performed after 16-20 hours of incubation at 35±2° C. in the ambient air. The overall procedure was performed as per Clinical and Laboratory Standards Institute (CLSI) recommendations, (Clinical and Laboratory Standards Institute (CLSI), Performance Standards for Antimicrobial Susceptibility Testing, 20th Informational Supplement, M07-A9, Volume 32, No. 2, 2012). Molten Mueller Hinton Agar (MHA) (BD, USA) containing serial dilutions of each antibacterial agent were poured on to the plates and allowed to solidify. Appropriate suspensions from the freshly grown cultures were prepared in normal saline so that about 10^4 CFU/spot of the organism was delivered on to the drug containing agar plates using automated multipoint inoculator (Mast, UK). The plates were incubated in Biochemical oxygen demand (BOD) incubator at 37° C. for 18 hours and then examined for growth. […] The Table 2 depicts the antibacterial activity profile of compounds according to present invention against various multidrug resistant bacterial strains.

K. pneumoniae H 522 = test: Agar dilution MIC, K. pneumoniae H 522; type: cell-based; settings: Klebsiella pneumoniae, H522
Protocol: as §1

E. Coli 7 MP = test: Agar dilution MIC, E. Coli 7 MP; type: cell-based; settings: Escherichia coli
Protocol: as §1

E. Coli M 36 = test: Agar dilution MIC, E. Coli M 36; type: cell-based; settings: Escherichia coli
Protocol: as §1

KP ATCC 700603 = test: Agar dilution MIC, KP ATCC 700603; type: cell-based, K. pneumoniae; settings: Klebsiella pneumoniae, ATCC700603
Protocol: as §1

E. Coli 13351 = test: Agar dilution MIC, E. Coli 13351; type: cell-based; settings: Escherichia coli
Protocol: as §1

E. Coli M 50 = test: Agar dilution MIC, E. Coli M 50; type: cell-based; settings: Escherichia coli
Protocol: as §1

E. Coli 13352 = test: Agar dilution MIC, E. Coli 13352; type: cell-based; settings: Escherichia coli
Protocol: as §1

K. pneumoniae H 521 = test: Agar dilution MIC, K. pneumoniae H 521; type: cell-based; settings: Klebsiella pneumoniae, H521
Protocol: as §1

E. Coli M 49 = test: Agar dilution MIC, E. Coli M 49; type: cell-based; settings: Escherichia coli
Protocol: as §1

E. Coli 13353 = test: Agar dilution MIC, E. Coli 13353; type: cell-based; settings: Escherichia coli
Protocol: as §1

E. Coli S 18 = test: Agar dilution MIC, E. Coli S 18; type: cell-based; settings: Escherichia coli
Protocol: as §1

K. pneumoniae H 525 = test: Agar dilution MIC, K. pneumoniae H 525; type: cell-based; settings: Klebsiella pneumoniae, H525
Protocol: as §1

E. Coli M 138 = test: Agar dilution MIC, E. Coli M 138; type: cell-based; settings: Escherichia coli
Protocol: as §1

| Compound | MIC (K. pneumoniae H 523) [µg/mL] | MIC (K. pneumoniae H 522) [µg/mL] | MIC (E. Coli 7 MP) [µg/mL] | MIC (E. Coli M 36) [µg/mL] | MIC (KP ATCC 700603) [µg/mL] | MIC (E. Coli 13351) [µg/mL] | MIC (E. Coli M 50) [µg/mL] | MIC (E. Coli 13352) [µg/mL] | MIC (K. pneumoniae H 521) [µg/mL] | MIC (E. Coli M 49) [µg/mL] | MIC (E. Coli 13353) [µg/mL] | MIC (E. Coli S 18) [µg/mL] | MIC (K. pneumoniae H 525) [µg/mL] | MIC (E. Coli M 138) [µg/mL] |
| --- | --- | --- | --- | --- | --- | --- | --- | --- | --- | --- | --- | --- | --- | --- |
| O=C(NOC[C@@H]1C[C@@H](CO)CN1)[C@@H]1CC[C@@H]2CN1C(=O)N2OS(=O)(=O)O [Example 5] | 1 (≈ 2.54 µM) | 1 (≈ 2.54 µM) | 2 (≈ 5.07 µM) | 1 (≈ 2.54 µM) | > 32 | 1 (≈ 2.54 µM) | 1 (≈ 2.54 µM) | 2 (≈ 5.07 µM) | 1 (≈ 2.54 µM) | 4 (≈ 10.1 µM) | 1 (≈ 2.54 µM) | 1 (≈ 2.54 µM) | 1 (≈ 2.54 µM) | 1 (≈ 2.54 µM) |
| O=C(NOC[C@@H]1C[C@H](CO)CN1)[C@@H]1CC[C@@H]2CN1C(=O)N2OS(=O)(=O)O [Example 6] | 2 (≈ 5.07 µM) | 2 (≈ 5.07 µM) | 2 (≈ 5.07 µM) | 1 (≈ 2.54 µM) | > 32 | 1 (≈ 2.54 µM) | 1 (≈ 2.54 µM) | 2 (≈ 5.07 µM) | 2 (≈ 5.07 µM) | 4 (≈ 10.1 µM) | 1 (≈ 2.54 µM) | 1 (≈ 2.54 µM) | 1 (≈ 2.54 µM) | 1 (≈ 2.54 µM) |
| O=C(NOC[C@H]1C[C@H](CO)CN1)[C@@H]1CC[C@@H]2CN1C(=O)N2OS(=O)(=O)O [Example 7] | 1 (≈ 2.54 µM) | 2 (≈ 5.07 µM) | 2 (≈ 5.07 µM) | 1 (≈ 2.54 µM) | > 32 | 1 (≈ 2.54 µM) | 1 (≈ 2.54 µM) | 2 (≈ 5.07 µM) | 2 (≈ 5.07 µM) | 4 (≈ 10.1 µM) | 1 (≈ 2.54 µM) | 1 (≈ 2.54 µM) | 1 (≈ 2.54 µM) | 1 (≈ 2.54 µM) |
| O=C(NOC[C@H]1C[C@@H](CO)CN1)[C@@H]1CC[C@@H]2CN1C(=O)N2OS(=O)(=O)O [Example 8] | 1 (≈ 2.54 µM) | 8 (≈ 20.3 µM) | 4 (≈ 10.1 µM) | 1 (≈ 2.54 µM) | > 32 | 2 (≈ 5.07 µM) | 1 (≈ 2.54 µM) | 4 (≈ 10.1 µM) | 4 (≈ 10.1 µM) | 4 (≈ 10.1 µM) | 1 (≈ 2.54 µM) | 2 (≈ 5.07 µM) | 1 (≈ 2.54 µM) | 1 (≈ 2.54 µM) |
| NC[C@H]1CN[C@H](CONC(=O)[C@@H]2CC[C@@H]3CN2C(=O)N3OS(=O)(=O)O)C1 [Example 9] | 2 (≈ 5.08 µM) | 4 (≈ 10.2 µM) | 8 (≈ 20.3 µM) | 2 (≈ 5.08 µM) | > 32 | 4 (≈ 10.2 µM) | 2 (≈ 5.08 µM) | 4 (≈ 10.2 µM) | 4 (≈ 10.2 µM) | 4 (≈ 10.2 µM) | 2 (≈ 5.08 µM) | 2 (≈ 5.08 µM) | 2 (≈ 5.08 µM) | 4 (≈ 10.2 µM) |
| O=C(NOC[C@@H]1C[C@@H](CF)CN1)[C@@H]1CC[C@@H]2CN1C(=O)N2OS(=O)(=O)O [Example 10] | 2 (≈ 5.05 µM) | 2 (≈ 5.05 µM) | 2 (≈ 5.05 µM) | 1 (≈ 2.52 µM) | > 32 | 1 (≈ 2.52 µM) | 1 (≈ 2.52 µM) | 2 (≈ 5.05 µM) | 2 (≈ 5.05 µM) | 4 (≈ 10.1 µM) | 1 (≈ 2.52 µM) | 1 (≈ 2.52 µM) | 2 (≈ 5.05 µM) | 1 (≈ 2.52 µM) |
